Test results from US8232289B2, “Spiropiperidine compounds as ORL-1 receptor antagonists” (Eli Lilly and Company, priority 2009, dated 2012).
Read-outs that look alike come from different tables or passages of the source. Marks after values point to notes of the source that are not given here.

Experiments:
Delta Opioid = Delta Opioid (Homo sapiens, UniProt P41143); assay: Radioligand binding selectivity, Delta Opioid
Source text: (§1) Similarly, Ki for the mu, kappa and delta opioids, serotonin, dopamine, adrenergic, mucarinic, and histamine receptors, as well as binding to the norepinephrine transporter, sodium channel, chloride channel, and calcium channel may be determined using membranes expressing the desired receptor/transporter/channels and appropriate corresponding radioligand competitor molecules.

Mu Opioid = Mu Opioid (Homo sapiens, UniProt P35372); assay: Radioligand binding selectivity, Mu Opioid
Source text: as §1

[1] = tested on: wild type and ORL knockout mice; assay: Blockade of fasting-induced hyperphagia in mice; format: in vivo
Source text: Blockade of fasting-induced hyperphagia in rodents is an accepted model for hyperphagic eating disorders. […] Mice are individually housed a minimum of 3 days prior to the onset of testing to eliminate any effects of stress due to the change from group to individual housing. Three mice/genotype are randomly assigned to each treatment group on the test day. Pre-fast body weight measurements are taken, and food is then removed from cages overnight. Mice are fasted for approximately 15 hr. The next morning, the mice are given one of three doses of drug or vehicle via oral gavage 30 min. prior to gaining access to food. Drugs are dissolved in 20% Captisol dissolved in 25 mM phosphate buffer, pH 2.0. Measurements of body weight are taken immediately prior to drug treatment or 24 hr. after access to food is restored. […] Measurements of food intake are recorded 1 hr following access to food, as indicated, by weight of food remaining at 1 hr. It should be noted that food intake measured is during the light phase, a time during which mice are typically at rest and not normally eating. Following initial testing, mice are rested for 1 week with access to unlimited chow.

[2] = biological target: T1, human ERG (hERG) K+ channel (Homo sapiens, UniProt Q12809); assay: hERG channel [3H]astemizole binding assay
T1 construct: host or cells: HEK293 cells
Protocol: Blockade of K^+-channel conductance in the heart is associated with cardiotoxicity in the form of QT-wave prolongation. The affinity (K) of the exemplified nociceptin receptor antagonists for the human ERG (hERG) K^+ channel is determined in HEK293 cells expressing cloned hERG using the hERG channel antagonist radioligand [3H]astemizole (2 nM final assay concentration) according to well known procedures (see for example Finlayson K, et al. (Eur J Pharmacol. 412(3):203-12, 2001) [3H]Astemizole binding assays are performed at the contract research company Cerep (Paris France) according to standard procedures.

[3] = biological target: T2, cloned human ORL1/nociceptin receptors (Homo sapiens, UniProt P41146); assay: Functional blockade of agonist-mediated G-protein activation, GTP-γ-[35S] binding; format: biochemical
T2 construct: expressed in transfected cells
Source text: Agonist-mediated stimulation of G-protein coupled receptors results in the activation of membrane associated Gαβγ-protein heterotrimer complexes, and represents the first step in the transduction of extracellular signals to modification of intracellular pathways. The first step in activation of receptor-mediated activation of Gαβγ-proteins heterotrimer is the exchange of Gα subunit bound guanosine diphoshpate (GDP) for guanosine triphosphate (GTP). The binding of GTP to the Gα subunit causes dissociation of the heterotrimer subunits, Gβ and Gγ, resulting in the modulation of several intracellular signaling cascades. Measurement of receptor-mediated G-protein activation can be measured using the non-hydrolyzable radiolabeled analog of GTP, GTP-γ-[35S]. Utilizing this methodology, antagonist affinity (Kb) is measured in membranes expressing cloned human ORL1/nociceptin receptors using a GTP-γ-[35S] binding assay according to previously described protocols with minor modifications (DeLapp et al., J Pharmacol Exp Ther. 1999 May; 289(2):946-55; Ozaki et al., Eur J Pharmacol. 2000 Aug. 18; 402(1-2):45-53). Assays are conducted in a 200-μl volume with the following buffer composition: 100 mM NaCl, 20 mM HEPES, 5 mM MgCl2, 1 mM EDTA, 0.1% BSA, 3 μM GDP, 0.5 nM [^35S]GTPγS. ORL1 receptor membrane suspension is added at a concentration of 20 μg protein per well and receptor stimulation is achieved using 300 nM nociceptin/OFQ. Wheat germ agglutinin coated SPA beads (Amersham, Arlington Hts., IL) are added at 1 mg per well to detect membrane-bound [^35S]GTPγS. Plates are sealed and incubated for 2 hr. at room temperature. Plates are then placed at 4° C. overnight to allow the SPA beads to settle and then counted in a Wallac Microbeta. Specific [^35S]GTPγS binding is determined as the difference in CPM observed in the absence and presence of 10 μM unlabeled GTPγS. Data are plotted as the percent of specific [^35S]GTPγS bound. Curves are plotted as the percent of specific binding and IC50 values are determined using a sigmoidal dose response curve with variable slope. […]

male NIH-Swiss mice = assay: Forced-swim test in mice (mFST); format: in vivo; settings: for ED60 in mFST: immobilization time; for maximum effect, reduction in immobilization time: mouse, in vivo
Source text: mFST is an established in vivo assay for antidepressant activity (Li et al. J Pharmacol Exp Ther. 319(1):254-9, 2006.). […] The mFST was used to evaluate potential antidepressant-like activity of novel nociceptin/ORL1 antagonists according to previously published methods (Li et al. J Pharmacol Exp Ther. 319(1):254-9, 2006.). Briefly, male NIH-Swiss mice (Harlan Sprague-Dawley, Indianapolis, Ind.) weighing between 25-30 g are used. Group housed animals are removed from the vivarium to the testing area in their own cages and allowed to adapt to the new environment for at least 1 hour before testing. Alternatively, male 129S6 wild type and nociceptin/ORL1 receptor knockout mice were used to confirm dependence of the response to compound was nociceptin/ORL1 receptor dependent. All compounds are prepared in 20% Captisol, 25 mM phosphate buffer, pH 2.0 on the day of use. Mice are placed in a cylinder (diameter: 10 cm; height: 25 cm) filled with 6 cm of water (22-25° C.) for 6 min. The duration of immobility during the last 4 min. of the 6 min. period of the test was scored. A mouse is recorded as immobile when floating motionless or making only those movements necessary to keep its head above water.

[4] = biological target: Ca+2 channel (diltiazem site); assay: Radioligand binding selectivity, Ca+2 channel (diltiazem site)
Source text: as §1

Muscarinic M3 = Muscarinic M3 (Homo sapiens, UniProt P20309); assay: Radioligand binding selectivity, Muscarinic M3
Source text: as §1

5-HT2B = 5-HT2B (Homo sapiens, UniProt P41595); assay: Radioligand binding selectivity, 5-HT2B
Source text: as §1

Adenosine A3 = Adenosine A3 (Homo sapiens, UniProt P0DMS8); assay: Radioligand binding selectivity, Adenosine A3
[5] = biological target: Norepinephrine transporter (Homo sapiens, UniProt P23975); assay: Radioligand binding selectivity, Norepinephrine transporter
Source text: as §1

[6] = wild type mice, oral gavage 30 min. prior to food, food intake at 1 hr

T1 sequence (Q12809 whole entry): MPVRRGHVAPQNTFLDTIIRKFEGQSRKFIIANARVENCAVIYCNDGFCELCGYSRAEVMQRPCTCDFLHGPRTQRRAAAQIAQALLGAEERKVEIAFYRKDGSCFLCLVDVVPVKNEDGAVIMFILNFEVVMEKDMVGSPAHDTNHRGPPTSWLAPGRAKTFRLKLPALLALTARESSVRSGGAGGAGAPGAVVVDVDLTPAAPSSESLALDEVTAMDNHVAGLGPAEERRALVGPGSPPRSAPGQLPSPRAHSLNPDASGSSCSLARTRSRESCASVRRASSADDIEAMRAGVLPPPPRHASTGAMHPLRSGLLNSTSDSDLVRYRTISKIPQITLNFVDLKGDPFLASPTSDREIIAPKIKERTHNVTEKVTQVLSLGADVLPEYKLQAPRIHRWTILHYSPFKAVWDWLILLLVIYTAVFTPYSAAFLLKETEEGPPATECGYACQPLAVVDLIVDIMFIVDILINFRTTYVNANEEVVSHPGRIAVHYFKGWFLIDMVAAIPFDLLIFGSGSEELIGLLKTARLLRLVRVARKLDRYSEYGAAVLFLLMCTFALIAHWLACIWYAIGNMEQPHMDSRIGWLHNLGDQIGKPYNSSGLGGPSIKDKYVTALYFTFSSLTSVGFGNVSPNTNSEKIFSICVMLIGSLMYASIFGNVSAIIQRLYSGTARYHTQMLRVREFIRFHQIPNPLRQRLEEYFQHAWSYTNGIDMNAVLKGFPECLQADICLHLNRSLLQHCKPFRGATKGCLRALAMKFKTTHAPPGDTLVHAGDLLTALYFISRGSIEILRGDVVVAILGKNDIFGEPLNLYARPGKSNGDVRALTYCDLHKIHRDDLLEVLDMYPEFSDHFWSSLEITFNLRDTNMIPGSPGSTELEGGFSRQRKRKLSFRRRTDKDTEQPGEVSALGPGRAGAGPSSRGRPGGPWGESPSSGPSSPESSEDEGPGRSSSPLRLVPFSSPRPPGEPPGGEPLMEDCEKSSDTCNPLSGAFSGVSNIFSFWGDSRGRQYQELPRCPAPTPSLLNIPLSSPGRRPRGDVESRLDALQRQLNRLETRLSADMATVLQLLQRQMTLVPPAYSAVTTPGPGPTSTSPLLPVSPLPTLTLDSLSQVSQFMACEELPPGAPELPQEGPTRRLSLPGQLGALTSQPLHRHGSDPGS
Chain of Delta Opioid (P41143 whole entry): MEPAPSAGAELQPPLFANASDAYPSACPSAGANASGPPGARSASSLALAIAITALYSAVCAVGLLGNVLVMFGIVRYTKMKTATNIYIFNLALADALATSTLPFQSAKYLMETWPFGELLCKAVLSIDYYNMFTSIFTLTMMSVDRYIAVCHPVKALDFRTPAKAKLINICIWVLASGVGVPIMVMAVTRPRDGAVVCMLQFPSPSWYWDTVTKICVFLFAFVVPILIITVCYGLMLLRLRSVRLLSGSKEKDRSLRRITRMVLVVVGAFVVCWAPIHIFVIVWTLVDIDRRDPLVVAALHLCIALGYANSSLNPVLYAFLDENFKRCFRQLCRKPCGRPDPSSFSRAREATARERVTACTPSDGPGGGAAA
Chain of Mu Opioid (P35372 whole entry): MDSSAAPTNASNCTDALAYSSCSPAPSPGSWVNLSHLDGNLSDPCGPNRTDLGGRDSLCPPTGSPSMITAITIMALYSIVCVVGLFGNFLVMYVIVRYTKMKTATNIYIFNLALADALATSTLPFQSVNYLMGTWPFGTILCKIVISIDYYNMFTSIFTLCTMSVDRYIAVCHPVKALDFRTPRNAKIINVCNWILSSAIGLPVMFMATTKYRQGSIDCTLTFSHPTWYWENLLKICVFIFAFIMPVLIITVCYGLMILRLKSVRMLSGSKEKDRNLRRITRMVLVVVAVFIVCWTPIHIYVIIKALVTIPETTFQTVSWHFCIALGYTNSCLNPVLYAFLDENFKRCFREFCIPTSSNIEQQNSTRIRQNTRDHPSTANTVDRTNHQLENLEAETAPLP
Chain of Norepinephrine transporter (P23975 whole entry, species assumed): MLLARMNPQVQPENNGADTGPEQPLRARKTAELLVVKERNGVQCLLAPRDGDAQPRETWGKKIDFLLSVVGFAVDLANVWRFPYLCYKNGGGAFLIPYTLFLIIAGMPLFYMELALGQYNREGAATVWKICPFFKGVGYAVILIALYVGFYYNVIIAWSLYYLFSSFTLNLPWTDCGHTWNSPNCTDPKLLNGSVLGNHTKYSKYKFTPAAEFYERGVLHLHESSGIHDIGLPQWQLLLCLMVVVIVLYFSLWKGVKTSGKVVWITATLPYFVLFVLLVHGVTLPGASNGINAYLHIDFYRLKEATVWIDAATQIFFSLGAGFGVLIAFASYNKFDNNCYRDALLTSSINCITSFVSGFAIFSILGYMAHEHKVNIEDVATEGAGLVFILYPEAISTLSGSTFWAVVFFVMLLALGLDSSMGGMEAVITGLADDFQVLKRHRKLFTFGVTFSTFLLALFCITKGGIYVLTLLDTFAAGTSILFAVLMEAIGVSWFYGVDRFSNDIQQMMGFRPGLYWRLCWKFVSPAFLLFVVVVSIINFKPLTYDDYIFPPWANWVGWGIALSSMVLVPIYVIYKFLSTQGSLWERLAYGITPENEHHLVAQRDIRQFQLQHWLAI
Chain of Muscarinic M3 (P20309 whole entry): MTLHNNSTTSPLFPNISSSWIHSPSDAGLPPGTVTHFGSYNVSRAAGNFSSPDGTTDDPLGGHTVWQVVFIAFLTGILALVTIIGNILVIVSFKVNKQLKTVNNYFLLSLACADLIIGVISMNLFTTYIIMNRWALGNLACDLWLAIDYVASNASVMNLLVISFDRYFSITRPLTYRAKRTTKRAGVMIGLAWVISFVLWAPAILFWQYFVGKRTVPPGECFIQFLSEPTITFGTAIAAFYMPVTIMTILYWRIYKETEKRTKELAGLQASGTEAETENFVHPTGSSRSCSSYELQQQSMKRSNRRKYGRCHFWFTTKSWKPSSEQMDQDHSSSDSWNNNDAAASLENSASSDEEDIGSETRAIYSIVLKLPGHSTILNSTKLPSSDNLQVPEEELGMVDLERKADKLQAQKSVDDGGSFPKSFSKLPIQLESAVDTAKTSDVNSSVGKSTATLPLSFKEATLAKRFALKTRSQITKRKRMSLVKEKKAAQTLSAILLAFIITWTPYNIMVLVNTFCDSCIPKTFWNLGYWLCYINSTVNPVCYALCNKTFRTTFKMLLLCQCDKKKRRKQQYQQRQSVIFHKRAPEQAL
T2 sequence (P41146 whole entry): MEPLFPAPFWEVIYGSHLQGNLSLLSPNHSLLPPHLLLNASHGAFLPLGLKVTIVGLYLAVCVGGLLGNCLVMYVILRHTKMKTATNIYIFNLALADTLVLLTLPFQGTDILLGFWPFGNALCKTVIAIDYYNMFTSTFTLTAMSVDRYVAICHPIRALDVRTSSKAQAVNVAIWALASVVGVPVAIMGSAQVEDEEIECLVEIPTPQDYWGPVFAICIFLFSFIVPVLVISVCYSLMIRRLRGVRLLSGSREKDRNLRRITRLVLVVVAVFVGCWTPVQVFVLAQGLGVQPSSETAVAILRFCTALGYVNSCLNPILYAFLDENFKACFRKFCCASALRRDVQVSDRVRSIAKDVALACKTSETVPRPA
Chain of Adenosine A3 (P0DMS8 whole entry): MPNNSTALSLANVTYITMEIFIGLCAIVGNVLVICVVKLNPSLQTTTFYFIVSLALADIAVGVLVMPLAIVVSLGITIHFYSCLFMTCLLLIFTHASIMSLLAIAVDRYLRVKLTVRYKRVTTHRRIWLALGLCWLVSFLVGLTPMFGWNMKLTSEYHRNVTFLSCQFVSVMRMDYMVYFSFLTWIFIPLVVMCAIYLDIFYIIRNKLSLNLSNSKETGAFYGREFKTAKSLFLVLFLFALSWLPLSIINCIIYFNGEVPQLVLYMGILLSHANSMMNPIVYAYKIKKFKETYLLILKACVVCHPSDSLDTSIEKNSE
Chain of 5-HT2B (P41595 whole entry, species assumed): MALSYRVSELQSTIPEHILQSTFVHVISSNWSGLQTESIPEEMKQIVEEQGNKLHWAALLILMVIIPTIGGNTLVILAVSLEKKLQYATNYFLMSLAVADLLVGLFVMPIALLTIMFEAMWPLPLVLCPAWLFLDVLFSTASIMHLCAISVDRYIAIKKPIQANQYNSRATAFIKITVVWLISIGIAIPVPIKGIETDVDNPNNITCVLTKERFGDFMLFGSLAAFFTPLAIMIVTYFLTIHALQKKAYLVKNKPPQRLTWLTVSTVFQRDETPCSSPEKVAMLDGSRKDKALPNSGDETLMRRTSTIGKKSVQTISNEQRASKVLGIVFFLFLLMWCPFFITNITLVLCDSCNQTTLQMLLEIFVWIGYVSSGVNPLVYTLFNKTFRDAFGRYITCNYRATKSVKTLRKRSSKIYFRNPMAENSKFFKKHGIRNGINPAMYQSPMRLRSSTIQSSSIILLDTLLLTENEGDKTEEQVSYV

| Compound | Ki (Delta Opioid) [nM] | Ki (Mu Opioid) [nM] | effect on fasting-induced hyperphagia ([1]; ORL-1 knockout mouse strain) | effect on fasting-induced hyperphagia [1, 6] | Ki [2] [nM] | Kb [3] [nM] | ED60 in mFST (male NIH-Swiss mice) [mg/kg] | maximum effect, reduction in immobilization time (male NIH-Swiss mice) [%] | Ki [4] [nM] | Ki (Adenosine A3) [nM] | further results |
| --- | --- | --- | --- | --- | --- | --- | --- | --- | --- | --- | --- |
| Cc1nn(-c2ncccc2Cn2cccn2)cc1CN1CCC2(CC1)OCC(F)(F)c1cc(Cl)sc12.O=C(O)C(O)C(O)C(=O)O [Example 23, 2-Chloro-4,4-difluoro-1′-[[3-methyl-1-[3-(pyrazol-1-ylmethyl)-2-pyridyl]pyrazol-4-yl]methyl]spiro[5H-thieno[2,3-c]pyran-7,4′-piperidine] (L)-Tartrate] | > 479 | > 451 | not observed | substantially block fasting-induced hyperphagia | 1210 | 1.52 | 9.5 | 58 |  |  |  |
| O=C(O)C(O)C(O)C(=O)O.OCc1nn(-c2ncccc2F)cc1CN1CCC2(CC1)OCC(F)(F)c1cc(Cl)sc12 [Example 53, [4-[(2-Chloro-4,4-difluoro-spiro[5H-thieno[2,3-c]pyran-7,4′-piperidine]-1′-yl)methyl]-1-(3-fluoro-2-pyridyl)pyrazol-3-yl]methanol (L)-Tartrate] | > 479 | > 451 | not observed | substantially block fasting-induced hyperphagia | 8600 | 0.62 | 12.9 | 54 | > 500 | > 5000 | Ki (Muscarinic M3): > 5000 nM; Ki (5-HT2B): 220 nM; Ki [5]: > 500 nM |
| Cc1nn(-c2ncccc2CO)cc1CN1CCC2(CC1)OCC(F)(F)c1cc(Cl)sc12 [Example 62, [2-[4-[(2-Chloro-4,4-difluoro-spiro[5H-thieno[2,3-c]pyran-7,4′-piperidine]-1′-yl)methyl]-3-methyl-pyrazol-1-yl]-3-pyridyl]methanol] |  |  | not observed | substantially block fasting-induced hyperphagia |  |  | 24.9 | 45 | > 500 | > 5000 | Ki (Delta Opioid; read-out: Ki Delta Opioid): > 479 nM; Ki (Mu Opioid; read-out: Ki Mu Opioid): > 451 nM; Ki (Muscarinic M3; read-out: Ki Muscarinic M3): > 5000 nM; Ki (5-HT2B; read-out: Ki 5-HT2B): 693 nM; Ki ([2]; HEK293 cells expressing cloned hERG, [3H]astemizole 2 nM, read-out: Ki hERG K+ channel): 6080 nM; Ki ([5]; read-out: Ki Norepinephrine transporter): > 500 nM; Immobilization Time (male NIH-Swiss mice; 3 mg/Kg Ex. 62 + 10 mg/Kg fluoxetine): 97* sec; Immobilization Time (male NIH-Swiss mice; 3 mg/Kg, alone): 163 s; Immobilization Time (male NIH-Swiss mice; 10 mg/Kg Ex. 62 + 10 mg/Kg fluoxetine): 85* sec; Immobilization Time (male NIH-Swiss mice; 10 mg/Kg, alone): 129 s; effect on immobilization time in combination with fluoxetine (male NIH-Swiss mice; in combination with 10 mg/kg fluoxetine): significantly further reduce immobilization time over either fluoxetine or the compound of Example 62 alone |
